This is an account of results in ChEMBL document CHEMBL3244359, “Aromatic hydroxylation of beta-adrenergic antagonists. 4- and 5-hydroxylation of 1-(isopropylamino)-3-[2-(allyloxy)phenoxy]-2-propanol (oxprenolol)” (J Med Chem, 1978).

The nature of data set [1]: Drug excretion in Sprague-Dawley rat urine treated with oxprenolol at 20 mg/kg, ip after 24 hrs by GC-CIMS analysis in presence of beta-glucuronidase and CH2N2. It is filed as ADME, organism-based. Further details: dose 20 mg/kg, route intraperitoneal. Conditions: in vivo.
Data set [2] in a line: Retention time of the compound by gas chromatography. It is filed as physicochemical.
A short description of data set [3]: Drug excretion in Sprague-Dawley rat urine treated with oxprenolol at 20 mg/kg, ip after 24 hrs by GC-CIMS analysis. The data set is classed as ADME, organism-based. Further details: dose 20 mg/kg, route intraperitoneal. The settings on record: in vivo.

The structures appear in SMILES notation.

As for `C=CCOc1cc(OC)ccc1OCC(O)CNC(C)C.O=C(O)C(F)(F)F` (centres undefined), the Drug excretion result in data set [1] was “metabolite_detected”. Also, the Retention_time in data set [2] came to 13.1 min.

With `C=CCOc1cccc(OC)c1OCC(O)CNC(C)C.O=C(O)C(F)(F)F` (centres undefined), the Retention_time in data set [2] was determined as 10.5 min.

Regarding `C=CCOc1ccc(O)cc1OCC(O)CNC(C)C` (centres undefined), the Drug excretion result in data set [3] is given as “metabolite_detected”.

As to `C=CCOc1cc(O)ccc1OCC(O)CNC(C)C` (centres undefined), the Drug excretion result in data set [3] is listed as “metabolite_detected”.

For `C=CCOc1ccc(OC)cc1OCC(O)CNC(C)C.O=C(O)C(F)(F)F` (centres undefined), the Drug excretion entry in data set [1] is “metabolite_detected”. Also, in data set [2], the Retention_time worked out at 11.8 min.

As for `C=CCOc1c(OC)cccc1OCC(O)CNC(C)C.O=C(O)C(F)(F)F` (centres undefined), in data set [2], the Retention_time was 9.6 min.

In the case of `C=CCOc1ccccc1OCC(O)CNC(C)C.O=C(O)C(F)(F)F` (centres undefined), the Retention_time in data set [2] came to 5.7 min.
